Converted amounts (≈) assume the structure as drawn. Starred links: 1 amine or outer side, 2 acyl side, 3 side chain; linkers in the order of their positions; H or OH if unused. Positions of bridges follow the written chain, without caps; N, C: chain ends. Non-standard residues stand in square brackets, D forms with d. Residues, ends and D or L forms follow the SMILES beside them. *: point of attachment. Decanoyl(3R-OH) = CCCCCCC[C@@H](O)CC(=O)*; azaDab = NCCN(N[*:1])C(=O)[*:2]; dOrn = NCCC[C@@H](N)C(=O)O; dDab = NCC[C@@H](N)C(=O)O; Dab = NCC[C@H](N)C(=O)O
What was measured:
A. baumannii ATCC 19606 = conditions: ATCC 19606
How it was run: (§1)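 Mid-log cultures grown in Mueller Hinton broth at 37° C were tested by 2-fold broth microdilution at 5×10^5 CFU/mL final. Compounds were dissolved in water and tested over a final range of 32 to 0.015 μg/mL.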

A. baumannii GN_093 PmxR = conditions: GN 093 PmxR
How it was run: as §1

E. coli ATCC 25922 = conditions: ATCC 25922
How it was run: as §1

K. pneumoniae ATCC 13883 = conditions: ATCC 13883
How it was run: as §1

[1] = test system: K. pneumoniae ATCC 700603, MDR; conditions: ATCC 700603
How it was run: as §1

[2] = test system: K. pneumoniae ATCC BAA-2146, NDM-1 pos; conditions: ATCC BAA-2146
How it was run: as §1

[3] = test system: K. pneumoniae GN_102 PmxR; conditions: GN 102 PmxR
How it was run: as §1

[4] = test system: K. pneumoniae GN_106, PmxR; conditions: GN 106, PmxR
How it was run: as §1

P. aeruginosa ATCC 27853 = conditions: ATCC 27853
How it was run: as §1

[5] = test system: P. aeruginosa GN_043, PmxR; conditions: for MIC, P. aeruginosa FADDI-PA070, PmxR: strain name as in Table 11
How it was run: as §1

[6] = test system: P. aeruginosa GN_105, PmxR; conditions: GN 105, PmxR
How it was run: as §1

[7] = test system: S. aureus ATCC 25923, MSSA; conditions: ATCC 25923
How it was run: as §1

in vitro [8] = conditions: human
How it was run: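 4000 cells/well, 24 h attach (37 °C, 5% CO2); compound 24 h; 5 μM resazurin 2 h, 37 °C; fluorescence ex/em 560/590. CC50 by curve fit.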

in vitro [9] = conditions: human; remark: listed apart in the source
How it was run: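 HK2 cells were seeded at 2000 per well in DMEM/F12 with 10% FBS and left to attach for 24 h at 37 °C, 5% CO2. They were then exposed for 24 h to 3-fold peptide dilutions starting from 600 μM solutions in quadruplicate. LDH release was read at 450 nm, and CC50 was fitted from dose-response curves.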

in vitro [10] = conditions: human; remark: listed apart in the source
Method: Cytotoxicity of the synthesised peptides was evaluated by comparison with commercially available colistin (polymyxin E), polymyxin B (Sigma chemical Co., St. Louis, Mo., U.S.A.) and synthetic octapeptin C4 by conducting lactate dehydrogenase (LDH) assay. CC50 values calculated based on curve fitting of dose dependent inhibition of cell growth represented the cytotoxicity of the peptide. Human kidney 2 (HK2) cells were seeded as 2000 cells per well in a 384 well cell culture plate in a final volume of 20 μL in DMEM/F12 medium (Invitrogen #11330057), in which 10% of FBS was added. Cells were incubated for 24 hours at 37° C., 5% CO2 to allow cells to attach to the plates. Similar conditions were employed for HEK293 and HepG2 cytotoxicity assays.
Cytotoxicity to HEK293 and HepG2 cells was determined using the resazurin assay (McMillian, M. K.; Li, L.; Parker, J. B.; Patel, L.; Zhong, Z.; Gunnett, J. W.; Powers, W. J.; Johnson, M. D. An improved resazurin-based cytotoxicity assay for hepatic cells; Cell Biol. Toxicol. 2002, 18, 157-173; O'Brien, J.; Wilson, I.; Orton, T.; Pognan, F. Investigation of the Alamar Blue (resazurin) fluorescent dye for the assessment of mammalian cell cytotoxicity. Eur. J. Biochem. 2000, 267, 5421-5426). In brief, HEK293 and HepG2 cells were seeded at 4000 cells/well in black-wall, clear-bottom 384-well plates (Corning, Australia) and incubated for 24 h at 37° C., 5% CO2. Compounds were then added into each well. After 24 h incubation, 5 μM resazurin was added per well and incubated at 37° C. for 2 h. Fluorescence intensity was then read using a Polarstar Omega with excitation/emission 560/590. The data was then analyzed using GraphPad Prism 6 software. CC50 values were determined using GraphPad Prism 6 software (Inc. La Jolla, Calif.).

Structure (SMILES)	MIC A. baumannii ATCC 19606 (A. baumannii ATCC 19606) [µg/mL]	MIC A. baumannii GN_093 PmxR (A. baumannii GN_093 PmxR) [µg/mL]	MIC E. coli ATCC 25922 (E. coli ATCC 25922) [µg/mL]	MIC K. pneumoniae ATCC 13883 (K. pneumoniae ATCC 13883) [µg/mL]	MIC K. pneumoniae ATCC 700603, MDR [1] [µg/mL]	MIC K. pneumoniae ATCC BAA-2146, NDM-1 pos [2] [µg/mL]	MIC K. pneumoniae GN_102 PmxR [3] [µg/mL]	MIC K. pneumoniae GN_106, PmxR [4] [µg/mL]	MIC P. aeruginosa ATCC 27853 (P. aeruginosa ATCC 27853) [µg/mL]	MIC P. aeruginosa GN_043, PmxR [5] [µg/mL]	MIC P. aeruginosa GN_105, PmxR [6] [µg/mL]	MIC S. aureus ATCC 25923, MSSA [7] [µg/mL]	CC50 at 24 h (in vitro [8]) [µM]	CC50 at 24 h (in vitro [9]) [µM]	CC50 at 24 h (in vitro [10]) [µM]	MIC A. baumannii Cl Ptyela 10073 4512:2, PmxR (A. baumannii GN_093 PmxR) [µg/mL]	MIC K. pneumoniae Cl Koprana 10065 0661:1 PmxR [3] [µg/mL]	MIC K. pneumoniae Cl 183-16357-20352, PmxR [4] [µg/mL]	MIC, P. aeruginosa FADDI-PA070, PmxR [5] [µg/mL]	MIC P. aeruginosa PA9704, PmxR [6] [µg/mL]
CCCCCCC[C@@H](O)CC(=O)N[C@H](CCCN)C(=O)N[C@H]1CCNC(=O)[C@H](CC(C)C)NC(=O)[C@H](CCN)NC(=O)[C@H](CCN)NC(=O)[C@H](Cc2ccccc2)NC(=O)[C@@H](CC(C)C)NC(=O)[C@H](CCN)NC1=O [compound 6428, 3(R)OH-nC9CO-D-Orn-cyc[L-Dab-L-Dab-D-Leu-L-Phe-L-Dab-L-Dab-L-Leu]] ({Decanoyl(3R-OH)}-[dOrn][Dab][Dab][dL]F[Dab][Dab]L; lactam 2-C)	32 (≈ 30.2 µM)	16 (≈ 15.1 µM)	16 (≈ 15.1 µM)	16 (≈ 15.1 µM)	8 (≈ 7.56 µM)	16 (≈ 15.1 µM)	2 (≈ 1.89 µM)	4 (≈ 3.78 µM)	4 (≈ 3.78 µM)	4 (≈ 3.78 µM)	4 (≈ 3.78 µM)	32 (≈ 30.2 µM)	> 300	137	> 300	–	–	–	–	–
CCCCCCC[C@@H](O)CC(=O)N[C@H](CCN)C(=O)N[C@H]1CCNC(=O)[C@H](CC(C)C)NC(=O)[C@H](CCN)NC(=O)[C@H](CCN)NC(=O)[C@@H](CC(C)C)NC(=O)[C@H](Cc2ccccc2)NC(=O)[C@H](CCN)NC1=O [compound 8640, 3(R)OH-nC9CO-D-Dab-cyc[L-Dab-L-DAB-L-Phe-D-Leu-L-Dab-L-Dab-L-Leu]] ({Decanoyl(3R-OH)}-[dDab][Dab][Dab]F[dL][Dab][Dab]L; lactam 2-C)	>32	>32	16 (≈ 15.3 µM)	>32	32 (≈ 30.6 µM)	>32	>32	>32	8 (≈ 7.66 µM)	>32	>32	32 (≈ 30.6 µM)	> 300	–	≥ 300	–	–	–	–	–
CCCCCCC[C@@H](O)CC(=O)N[C@H](CCN)C(=O)N[C@H]1CCNC(=O)[C@H](CC(C)C)NC(=O)[C@H](CCN)NC(=O)[C@H](CCN)NC(=O)[C@H](CC(C)C)NC(=O)[C@@H](Cc2ccccc2)NC(=O)N(CCN)NC1=O [compound 8636, 3(R)OH-nC9CO-D-Dab-cyc[L-Dab-azaDAB-D-Phe-L-Leu-L-Dab-L-Dab-L-Leu]] ({Decanoyl(3R-OH)}-[dDab][Dab][azaDab][dF]L[Dab][Dab]L; lactam 2-C)	>32	–	16 (≈ 15.3 µM)	>32	16 (≈ 15.3 µM)	>32	–	–	4 (≈ 3.83 µM)	–	–	32 (≈ 30.6 µM)	> 300	–	> 300	>32	>32	>32	>32	>32
CCCCCCC[C@@H](O)CC(=O)N[C@H](CCN)C(=O)N[C@H]1CCNC(=O)[C@H](CC(C)C)NC(=O)N(CCN)NC(=O)[C@H](CCN)NC(=O)[C@H](CC(C)C)NC(=O)[C@@H](Cc2ccccc2)NC(=O)[C@H](CCN)NC1=O [compound 8782, 3(R)OH-nC9CO-D-Dab-cyc[L-Dab-L-DAB-D-Phe-L-Leu-L-Dab-azaDab-L-Leu]] ({Decanoyl(3R-OH)}-[dDab][Dab][Dab][dF]L[Dab][azaDab]L; lactam 2-C)	>32	–	16 (≈ 15.3 µM)	32 (≈ 30.6 µM)	32 (≈ 30.6 µM)	>32	–	–	2 (≈ 1.91 µM)	–	–	16 (≈ 15.3 µM)	> 300	–	> 300	>32	>32	>32	8 (≈ 7.65 µM)	32 (≈ 30.6 µM)
